Test results published in PubChem BioAssay AID588609 (Sanford-Burnham Center for Chemical Genomics, 2011).
Active and inactive are the calls of the source.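 The calls were made as follows: active = compounds whose averaged half-maximal activating concentration falls below 100 micromolar; inactive = the rest.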

Target: intestinal alkaline phosphatase (Alpi), mouse
Test: murine Alpi activation by analogs – biochemical, luminescence, set 2, SAR follow-up (AID 588609)
Conditions: purified muIAP, CDP-Star luminescence, 30 min

Q: Which EC50 does the source give for `CN(C)CC(C)(C)CNC(=S)Nc1cccc(S(=O)(=O)N(C)C)c1` here?
A: > 100 µM (inactive)

Q: `Cc1ccc(S(=O)(=O)N(C)C)cc1NC(=S)NC(C)CCCC(C)C` (stereo not given) was tested. Which EC50 did it give?
A: 51.5 µM

Q: `CCN(CC)c1ccc(C(=O)NC(=S)Nc2cc(S(=O)(=O)N3CCOCC3)ccc2-n2cncn2)cc1` was tested. Which EC50 did it give?
A: > 100 µM (inactive)

Q: Which EC50 does the source give for `COc1ccccc1CNC(=S)Nc1ccc(S(=O)(=O)N(C)C)cc1` here?
A: 67.1 µM

Q: Which EC50 does the source give for `CN(C)S(=O)(=O)c1cccc(NC(=S)NC(c2ccccc2)c2ccccc2)c1` here?
A: 26 µM

Q: How did the EC50 turn out when `O=S(=O)(c1ccc(NC(=S)NCC(c2ccccc2)c2ccccc2)cc1)N1CCCCC1` was run?
A: 5.37 µM

Q: How did the EC50 turn out when `O=C(NC(=S)Nc1cc(S(=O)(=O)N2CCOCC2)ccc1O)c1ccco1` was run?
A: > 100 µM (inactive)

Q: How did the EC50 turn out when `COc1cccc(CCNC(=S)Nc2cccc(S(=O)(=O)N(C)C)c2)c1` was run?
A: 53.7 µM

Q: How did the EC50 turn out when `CN(C)S(=O)(=O)c1cccc(NC(=S)NCCc2ccc(F)cc2)c1` was run?
A: > 100 µM (inactive)

Q: Which EC50 does the source give for `Cc1ccc(C)c(NC(=S)Nc2ccc(S(=O)(=O)N3CCCCC3)cc2)c1` here?
A: > 100 µM (inactive)

Q: With `CN(C)S(=O)(=O)c1cccc(NC(=S)NCC(c2ccccc2)c2ccccc2)c1` as the compound, how does the EC50 read?
A: 15.3 µM

Q: How did the EC50 turn out when `O=S(=O)(c1ccc(NC(=S)NCC(c2ccccc2)c2ccccc2)cc1)N1CCCC1` was run?
A: 9.09 µM

Q: Which EC50 does the source give for `CC1CCN(S(=O)(=O)c2ccc(NC(=S)NCCC(c3ccccc3)c3ccccc3)cc2)CC1` here?
A: 12.9 µM

Q: Which EC50 does the source give for `CN(C)S(=O)(=O)c1cccc(NC(=S)NCCc2ccccc2)c1` here?
A: 51.6 µM

Q: How did the EC50 turn out when `CN(CCc1ccccc1)C(=S)Nc1cccc(S(=O)(=O)N(C)C)c1` was run?
A: > 100 µM (inactive)

Q: With `CC1CC(NC(=S)Nc2cccc(S(=O)(=O)N(C)C)c2)CC(C)N1` (stereo not given) as the compound, how does the EC50 read?
A: > 100 µM (inactive)

Q: For `CCN(CC)CCCNC(=S)Nc1cccc(S(=O)(=O)N(C)C)c1`, which EC50 is on record?
A: > 100 µM (inactive)

Q: Which EC50 does the source give for `CN(C)S(=O)(=O)c1cccc(NC(=S)NCCC(c2ccccc2)c2ccccc2)c1` here?
A: 7.44 µM

Q: How did the EC50 turn out when `COc1ccc(CCNC(=S)Nc2ccc(S(=O)(=O)N3CCCCC3)cc2)cc1OC` was run?
A: 60.5 µM

Q: How did the EC50 turn out when `CC(CCc1ccccc1)NC(=S)Nc1cccc(S(=O)(=O)N(C)C)c1` (stereo not given) was run?
A: 44.7 µM

Q: With `CN(C)S(=O)(=O)c1cccc(NC(=S)NCCc2ccc(Br)cc2)c1` as the compound, how does the EC50 read?
A: 86 µM

Q: With `COc1cccc(CNC(=S)Nc2ccc(S(=O)(=O)N(C)C)cc2)c1` as the compound, how does the EC50 read?
A: 45.1 µM

Q: Which EC50 does the source give for `CN(C)S(=O)(=O)c1ccc(NC(=S)NCCc2cccc(Br)c2)cc1` here?
A: 48.5 µM

Q: `CN(C)S(=O)(=O)c1cccc(NC(=S)NCCC(=O)N2CCCC2)c1` was tested. Which EC50 did it give?
A: > 100 µM (inactive)

Q: Which EC50 does the source give for `O=S(=O)(c1ccc(NC(=S)NCCC(c2ccccc2)c2ccccc2)cc1)N1CCCC1` here?
A: 59.3 µM

Q: `Cc1ccc(S(=O)(=O)N(C)C)cc1NC(=S)NCCCn1ccnc1` was tested. Which EC50 did it give?
A: > 100 µM (inactive)

Q: `O=S(=O)(c1ccc(NC(=S)NCc2cccc(Cl)c2)cc1)N1CCCCC1` was tested. Which EC50 did it give?
A: 36.1 µM

Q: With `CCN(CC)S(=O)(=O)c1ccc(NC(=S)NCC(c2ccccc2)c2ccccc2)cc1` as the compound, how does the EC50 read?
A: 19.5 µM

Q: Which EC50 does the source give for `CCCCCCC(C)NC(=S)Nc1cc(S(=O)(=O)N(C)C)ccc1C` (stereo not given) here?
A: 12.3 µM

Q: Which EC50 does the source give for `CN(C)S(=O)(=O)c1cccc(NC(=S)NCc2ccc(Cl)cc2)c1` here?
A: 12.2 µM

Q: With `CN(C)S(=O)(=O)c1ccc(NC(=S)NCC(c2ccccc2)c2ccccc2)cc1` as the compound, how does the EC50 read?
A: 13.4 µM

Q: Which EC50 does the source give for `CN(C)S(=O)(=O)c1ccc(NC(=S)NCCN2CCCC2)cc1` here?
A: > 100 µM (inactive)

Q: How did the EC50 turn out when `O=S(=O)(c1ccc(NC(=S)NC(c2ccccc2)c2ccccc2)cc1)N1CCCCC1` was run?
A: 4.38 µM

Q: With `O=S(=O)(c1ccc(NC(=S)NCc2cccc(F)c2)cc1)N1CCCCC1` as the compound, how does the EC50 read?
A: 28.5 µM

Q: For `Cc1ccc(S(=O)(=O)N(C)C)cc1NC(=S)NC1CCN(Cc2ccccc2)CC1`, which EC50 is on record?
A: > 100 µM (inactive)

Q: How did the EC50 turn out when `CN(C)S(=O)(=O)c1cccc(NC(=S)NCCc2cccc(Br)c2)c1` was run?
A: 56.9 µM

Q: How did the EC50 turn out when `CN(C)S(=O)(=O)c1cccc(NC(=S)NC(C)(C)CC(C)(C)C)c1` was run?
A: 32.1 µM

Q: Which EC50 does the source give for `O=C(CCc1ccccc1)NC(=S)Nc1cccc(S(=O)(=O)N2CCCC2)c1` here?
A: > 100 µM (inactive)

Q: `CN(C)S(=O)(=O)c1ccc(NC(=S)NCCc2ccccc2)cc1` was tested. Which EC50 did it give?
A: > 100 µM (inactive)

Q: For `O=S(=O)(c1ccc(NC(=S)NCCC(c2ccccc2)c2ccccc2)cc1)N1CCCCC1`, which EC50 is on record?
A: 44.5 µM

Q: With `O=S(=O)(c1ccc(NC(=S)NC(c2ccccc2)c2ccccc2)cc1)N1CCCC1` as the compound, how does the EC50 read?
A: 12.7 µM

Q: `CC1CCN(S(=O)(=O)c2ccc(NC(=S)NC(c3ccccc3)c3ccccc3)cc2)CC1` was tested. Which EC50 did it give?
A: 7.3 µM

Q: For `CN(C)S(=O)(=O)c1cccc(NC(=S)NCCc2cccc(F)c2)c1`, which EC50 is on record?
A: 20.2 µM

Q: How did the EC50 turn out when `Cc1ccccc1CNC(=S)Nc1ccc(S(=O)(=O)N(C)C)cc1` was run?
A: 47.7 µM

Q: With `Cc1ccc(S(=O)(=O)N(C)C)cc1NC(=S)NC(=O)C12CC3CC(CC(C3)C1)C2` as the compound, how does the EC50 read?
A: > 100 µM (inactive)

Q: With `CC(CNC(=S)Nc1cccc(S(=O)(=O)N(C)C)c1)N1CCN(c2ccccc2)CC1` (stereo not given) as the compound, how does the EC50 read?
A: 87.5 µM

Q: For `COc1ccc(CNC(=S)Nc2ccc(S(=O)(=O)N3CCCCC3)cc2)cc1OC`, which EC50 is on record?
A: 43.7 µM

Q: Which EC50 does the source give for `CN(C)S(=O)(=O)c1cccc(NC(=S)NCCCn2ccnc2)c1` here?
A: > 100 µM (inactive)

Q: Which EC50 does the source give for `CC1CCN(S(=O)(=O)c2ccc(NC(=S)NCC(c3ccccc3)c3ccccc3)cc2)CC1` here?
A: 6.81 µM

Q: `Cc1ccc(CNC(=S)Nc2ccc(S(=O)(=O)N(C)C)cc2)cc1` was tested. Which EC50 did it give?
A: 73.2 µM

Q: With `CCN(CC)S(=O)(=O)c1ccc(NC(=S)NCCC(c2ccccc2)c2ccccc2)cc1` as the compound, how does the EC50 read?
A: 76.9 µM

Q: With `Cc1ccc(CNC(=S)Nc2cccc(S(=O)(=O)N(C)C)c2)cc1` as the compound, how does the EC50 read?
A: 25.9 µM

Q: Which EC50 does the source give for `CN(C)S(=O)(=O)c1ccc(NC(=S)NCCC(c2ccccc2)c2ccccc2)cc1` here?
A: 20.1 µM

Q: For `CN(C)S(=O)(=O)c1cccc(NC(=S)NCCN2CCCC2)c1`, which EC50 is on record?
A: > 100 µM (inactive)

Q: Which EC50 does the source give for `CN(C)CCCNC(=S)Nc1cccc(S(=O)(=O)N(C)C)c1` here?
A: > 100 µM (inactive)

Q: For `O=c1c2ccccc2[nH]c(=S)n1-c1cccc(S(=O)(=O)N2CCCC2)c1`, which EC50 is on record?
A: > 100 µM (inactive)

Q: Which EC50 does the source give for `CN(C)S(=O)(=O)c1cccc(NC(=S)NCCc2cccc(O)c2)c1` here?
A: > 100 µM (inactive)

Q: For `CN(C)S(=O)(=O)c1cccc(NC(=S)NCCCN2CCCC2=O)c1`, which EC50 is on record?
A: > 100 µM (inactive)

Q: How did the EC50 turn out when `O=C(NC(=S)Nc1cc(S(=O)(=O)N2CCOCC2)ccc1N1CCOCC1)c1ccco1` was run?
A: > 100 µM (inactive)

Q: For `CCN(CC)S(=O)(=O)c1ccc(NC(=S)NC(c2ccccc2)c2ccccc2)cc1`, which EC50 is on record?
A: 43.9 µM

Q: For `CN(C)S(=O)(=O)c1ccc(NC(=S)NCCc2cccc(O)c2)cc1`, which EC50 is on record?
A: > 100 µM (inactive)

Q: Which EC50 does the source give for `COc1ccc(CCNC(=S)Nc2ccc(S(=O)(=O)N3CCCCC3)cc2)cc1` here?
A: 60.6 µM

Q: How did the EC50 turn out when `CN(CCc1ccccn1)C(=S)Nc1cccc(S(=O)(=O)N(C)C)c1` was run?
A: > 100 µM (inactive)

Q: `CN(C)S(=O)(=O)c1ccc(NC(=S)NC(c2ccccc2)c2ccccc2)cc1` was tested. Which EC50 did it give?
A: 3.23 µM

Q: Which EC50 does the source give for `Cc1ccc(S(=O)(=O)N(C)C)cc1NC(=S)NC(C)CCC(C)C` (stereo not given) here?
A: 42.7 µM
